From US6525001B1, “Substituted pyrimidine and pyridine herbicides” (Mid-American Commercialization Corporation, priority 1997, dated 2003)

Columns and labels:
Format in all cases: in vivo
soybean (Glycine max) = assay: Test B pre-/postemergence; parameters: key: 0 is no effect; 10 is complete control
Method in brief: (§1)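 Scored visually 0 (none) to 10 (complete control) against untreated plants after twelve to sixteen greenhouse days. Test chemicals, formulated in surfactant-containing non-phytotoxic solvent, applied to soil after planting and, separately, onto 1- to 4-leaf (2–18 cm) plants.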

[1] = system: bedstraw (Galium aparine); assay: Test B pre-/postemergence; parameters: key: 0 is no effect; 10 is complete control
Method in brief: as §1

[2] = system: wheat (Triticum aestivum); assay: Test B pre-/postemergence; parameters: key: 0 is no effect; 10 is complete control
Method in brief: as §1

[3] = system: crabgrass (Digitaria sanguinalis); assay: Test B pre-/postemergence; parameters: key: 0 is no effect; 10 is complete control
Method in brief: as §1

wild oat (Avena fatua) = assay: Test B pre-/postemergence; parameters: key: 0 is no effect; 10 is complete control
Method in brief: as §1

[4] = system: purple nutsedge (Cyperus rotundus); assay: Test B pre-/postemergence; parameters: key: 0 is no effect; 10 is complete control
Method in brief: as §1

[5] = system: sugar beet (Beta vulgaris); assay: Test B pre-/postemergence; parameters: key: 0 is no effect; 10 is complete control
Method in brief: as §1

[6] = system: velvetleaf (Abutilon theophrasti); assay: Test B pre-/postemergence; parameters: key: 0 is no effect; 10 is complete control
Method in brief: as §1

rape (Brassica napus) = assay: Test B pre-/postemergence; parameters: key: 0 is no effect; 10 is complete control
Method in brief: as §1

[7] = system: giant foxtail (Setaria faberii); assay: Test B pre-/postemergence; parameters: key: 0 is no effect; 10 is complete control
Method in brief: as §1

corn (Zea mays) = assay: Test B pre-/postemergence; parameters: key: 0 is no effect; 10 is complete control
Method in brief: as §1

rice (Oryza sativa) = assay: Test B flood test; details: for Plant response rating, Rice: Postemergence (flood test species)
Method in brief: (§2)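 Flood test on plants grown to the 2-leaf stage; treated plants kept in greenhouse twelve to sixteen days, then visually rated against controls on a 0 (no effect) to 10 (complete control) scale.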

[8] = system: smallflower flatsedge (Cyperus difformis); assay: Test B flood test; details: for Plant response rating, S. Flatsedge: Postemergence (flood test species)
Method in brief: as §2

[9] = system: bamyardgrass (Echinochloa crus-galli); assay: Test B flood test; details: for Plant response rating, Barnyardgrass: Postemergence (flood test species)
Method in brief: as §2

[10] = system: duck salad (Heteranthera limosa); assay: Test B flood test; details: for Plant response rating, Ducksalad: Postemergence (flood test species)
Method in brief: as §2

[11] = Preemergence, Rate 62 g/ha, scale of 0 to 10
[12] = Rate 62 g/ha, Postemergence (flood test)
[13] = Rate 125 g/ha, Postemergence section (flood test species)

Cc1cnc(-n2cnc(C(F)(F)F)n2)nc1C(=O)c1cccc(OC(F)(F)F)c1 [Compound 64] was tested, and the “Plant response rating, Soybean” value (soybean (Glycine max); [11]) was 0, the “Soybean plant response rating” value (soybean (Glycine max); Rate 62 g/ha, Postemergence) was 2 and the “Soybean plant response rating” value (soybean (Glycine max); Rate 125 g/ha, Postemergence) was 3. The “Plant response rating, Soybean” value (soybean (Glycine max); Rate 125 g/ha, Preemergence) was 1, the “Plant response rating, Soybean” value (soybean (Glycine max); Rate 250 g/ha, Postemergence) was 5 and the “Plant response rating, Soybean” value (soybean (Glycine max); Rate 250 g/ha, Preemergence) was 1. For the same compound, the “Plant response rating, Soybean” value (soybean (Glycine max); Rate 500 g/ha, Postemergence) was 6, the “Plant response rating, Soybean” value (soybean (Glycine max); Rate 500 g/ha, Preemergence) was 1 and the “Plant response rating, Bedstraw” value [1, 11] was 3. The “Bedstraw plant response rating” value ([1]; Rate 62 g/ha, Postemergence) was 3, the “Bedstraw plant response rating” value ([1]; Rate 125 g/ha, Postemergence) was 4 and the “Plant response rating, Bedstraw” value ([1]; Rate 125 g/ha, Preemergence) was 8. The “Plant response rating, Bedstraw” value ([1]; Rate 250 g/ha, Postemergence) was 7, the “Plant response rating, Bedstraw” value ([1]; Rate 250 g/ha, Preemergence) was 8 and the “Plant response rating, Bedstraw” value ([1]; Rate 500 g/ha, Postemergence) was 9. The “Plant response rating, Bedstraw” value ([1]; Rate 500 g/ha, Preemergence) was 9, the “Plant response rating, Wheat” value [2, 11] was 0 and the “Wheat plant response rating” value ([2]; Rate 62 g/ha, Postemergence) was 2. The “Wheat plant response rating” value ([2]; Rate 125 g/ha, Postemergence) was 3, the “Plant response rating, Wheat” value ([2]; Rate 125 g/ha, Preemergence) was 0 and the “Plant response rating, Wheat” value ([2]; Rate 250 g/ha, Postemergence) was 3. For the same compound, the “Plant response rating, Wheat” value ([2]; Rate 250 g/ha, Preemergence) was 1, the “Plant response rating, Wheat” value ([2]; Rate 500 g/ha, Postemergence) was 5 and the “Plant response rating, Wheat” value ([2]; Rate 500 g/ha, Preemergence) was 2. The “Plant response rating, Crabgrass” value [3, 11] was 9, the “Crabgrass plant response rating” value ([3]; Rate 62 g/ha, Postemergence) was 4 and the “Crabgrass plant response rating” value ([3]; Rate 125 g/ha, Postemergence) was 5. For the same compound, the “Plant response rating, Crabgrass” value ([3]; Rate 125 g/ha, Preemergence) was 10, the “Plant response rating, Crabgrass” value ([3]; Rate 250 g/ha, Postemergence) was 9 and the “Plant response rating, Crabgrass” value ([3]; Rate 250 g/ha, Preemergence) was 10. The “Plant response rating, Crabgrass” value ([3]; Rate 500 g/ha, Postemergence) was 9, the “Plant response rating, Crabgrass” value ([3]; Rate 500 g/ha, Preemergence) was 10 and the “Plant response rating, Wild oats” value (wild oat (Avena fatua); [11]) was 3. For the same compound, the “Wild oats plant response rating” value (wild oat (Avena fatua); Rate 62 g/ha, Postemergence) was 3, the “Wild oats plant response rating” value (wild oat (Avena fatua); Rate 125 g/ha, Postemergence) was 4 and the “Plant response rating, Wild oats” value (wild oat (Avena fatua); Rate 125 g/ha, Preemergence) was 4. The “Plant response rating, Wild oats” value (wild oat (Avena fatua); Rate 250 g/ha, Postemergence) was 5, the “Plant response rating, Wild oats” value (wild oat (Avena fatua); Rate 250 g/ha, Preemergence) was 5 and the “Plant response rating, Wild oats” value (wild oat (Avena fatua); Rate 500 g/ha, Postemergence) was 7. The “Plant response rating, Wild oats” value (wild oat (Avena fatua); Rate 500 g/ha, Preemergence) was 9, the “Plant response rating, Nutsedge” value [4, 11] was 0 and the “Nutsedge plant response rating” value ([4]; Rate 62 g/ha, Postemergence) was 0. The “Nutsedge plant response rating” value ([4]; Rate 125 g/ha, Postemergence) was 0, the “Plant response rating, Nutsedge” value ([4]; Rate 250 g/ha, Postemergence) was 0 and the “Plant response rating, Nutsedge” value ([4]; Rate 500 g/ha, Postemergence) was 2. The “Plant response rating, Nutsedge” value ([4]; Rate 500 g/ha, Preemergence) was 2, the “Plant response rating, Sugarbeets” value [5, 11] was 9 and the “Sugarbeets plant response rating” value ([5]; Rate 62 g/ha, Postemergence) was 9. For the same compound, the “Sugarbeets plant response rating” value ([5]; Rate 125 g/ha, Postemergence) was 10, the “Plant response rating, Sugarbeets” value ([5]; Rate 125 g/ha, Preemergence) was 10 and the “Plant response rating, Sugarbeets” value ([5]; Rate 250 g/ha, Postemergence) was 10. The “Plant response rating, Sugarbeets” value ([5]; Rate 250 g/ha, Preemergence) was 10, the “Plant response rating, Sugarbeets” value ([5]; Rate 500 g/ha, Postemergence) was 10 and the “Plant response rating, Sugarbeets” value ([5]; Rate 500 g/ha, Preemergence) was 10. For the same compound, the “Plant response rating, Velvetleaf” value [6, 11] was 4, the “Velvetleaf plant response rating” value ([6]; Rate 62 g/ha, Postemergence) was 2 and the “Velvetleaf plant response rating” value ([6]; Rate 125 g/ha, Postemergence) was 7. The “Plant response rating, Velvetleaf” value ([6]; Rate 125 g/ha, Preemergence) was 6, the “Plant response rating, Velvetleaf” value ([6]; Rate 250 g/ha, Postemergence) was 8 and the “Plant response rating, Velvetleaf” value ([6]; Rate 250 g/ha, Preemergence) was 6. The “Plant response rating, Velvetleaf” value ([6]; Rate 500 g/ha, Postemergence) was 9, the “Plant response rating, Velvetleaf” value ([6]; Rate 500 g/ha, Preemergence) was 10 and the “Plant response rating, Rape” value (rape (Brassica napus); [11]) was 3. The “Rape plant response rating” value (rape (Brassica napus); Rate 62 g/ha, Postemergence) was 3, the “Rape plant response rating” value (rape (Brassica napus); Rate 125 g/ha, Postemergence) was 4 and the “Plant response rating, Rape” value (rape (Brassica napus); Rate 125 g/ha, Preemergence) was 4. For the same compound, the “Plant response rating, Rape” value (rape (Brassica napus); Rate 250 g/ha, Postemergence) was 4, the “Plant response rating, Rape” value (rape (Brassica napus); Rate 250 g/ha, Preemergence) was 8 and the “Plant response rating, Rape” value (rape (Brassica napus); Rate 500 g/ha, Postemergence) was 4. The “Plant response rating, Rape” value (rape (Brassica napus); Rate 500 g/ha, Preemergence) was 10, the “Plant response rating, Giant foxtail” value [7, 11] was 1 and the “Giant foxtail plant response rating” value ([7]; Rate 62 g/ha, Postemergence) was 1. For the same compound, the “Giant foxtail plant response rating” value ([7]; Rate 125 g/ha, Postemergence) was 3, the “Plant response rating, Giant foxtail” value ([7]; Rate 125 g/ha, Preemergence) was 2 and the “Plant response rating, Giant foxtail” value ([7]; Rate 250 g/ha, Postemergence) was 4. The “Plant response rating, Giant foxtail” value ([7]; Rate 250 g/ha, Preemergence) was 5, the “Plant response rating, Giant foxtail” value ([7]; Rate 500 g/ha, Postemergence) was 5 and the “Plant response rating, Giant foxtail” value ([7]; Rate 500 g/ha, Preemergence) was 6. The “Plant response rating, Corn” value (corn (Zea mays); [11]) was 3, the “Corn plant response rating” value (corn (Zea mays); Rate 62 g/ha, Postemergence) was 1 and the “Corn plant response rating” value (corn (Zea mays); Rate 125 g/ha, Postemergence) was 3. The “Plant response rating, Corn” value (corn (Zea mays); Rate 125 g/ha, Preemergence) was 3, the “Plant response rating, Corn” value (corn (Zea mays); Rate 250 g/ha, Postemergence) was 4 and the “Plant response rating, Corn” value (corn (Zea mays); Rate 250 g/ha, Preemergence) was 4. For the same compound, the “Plant response rating, Corn” value (corn (Zea mays); Rate 500 g/ha, Postemergence) was 5, the “Plant response rating, Corn” value (corn (Zea mays); Rate 500 g/ha, Preemergence) was 4 and the “Rice plant response rating” value (rice (Oryza sativa); [12]) was 1. For the same compound, the “Rice plant response rating” value (rice (Oryza sativa); [13]) was 1, the “Plant response rating, Rice” value (rice (Oryza sativa); Rate 250 g/ha) was 2 and the “Plant response rating, Rice” value (rice (Oryza sativa); Rate 500 g/ha) was 3. The “S. Flatsedge plant response rating” value [8, 12] was 8, the “S. Flatsedge plant response rating” value [8, 13] was 8 and the “Plant response rating, S. Flatsedge” value ([8]; Rate 250 g/ha) was 8. The “Plant response rating, S. Flatsedge” value ([8]; Rate 500 g/ha) was 9, the “Barnyardgrass plant response rating” value [9, 12] was 2 and the “Barnyardgrass plant response rating” value [9, 13] was 3. The “Plant response rating, Barnyardgrass” value ([9]; Rate 250 g/ha) was 4, the “Plant response rating, Barnyardgrass” value ([9]; Rate 500 g/ha) was 5 and the “Ducksalad plant response rating” value [10, 12] was 4. For the same compound, the “Ducksalad plant response rating” value [10, 13] was 6, the “Plant response rating, Ducksalad” value ([10]; Rate 250 g/ha) was 6 and the “Plant response rating, Ducksalad” value ([10]; Rate 500 g/ha) was 9.
